In patent US9242984B2, “Pyrazolyl derivatives as Syk inhibitors” (Merck Sharp & Dohme Corp., priority 2012, dated 2016) one finds IC50 data, which are given here for 14 molecules.

One experiment has as its target T1, recombinant human Syk (GST-hSyk fusion protein) (Homo sapiens, UniProt P43405).
T1 construct: purchased Carna Biosciences 08-176
In words: Homogeneous Time-Resolved Fluorescence (HTRF) assay for the recombinant human Syk enzyme. The class given is biochemical. Conditions: 10-dose titration, 25 μM ATP; read-out: rhSYK IC50. In short, it runs like this:
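IC50 came from a four-parameter fit over ten doses, 10 μM to 0.508 nM, with HTRF read-out (Eu-anti-pTyr antibody, SA-APC, EDTA stop, 30 min). The enzyme, 5 pM GST-hSyk, met compound for 10 min, then phosphorylated 250 nM biotin-peptide with 25 μM ATP and 5 mM Mg for 45 min at room temperature, pH 7.5.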
(Time-resolved FRET reads energy transfer from a long-lived donor to a nearby acceptor.)
Take `Cc1cc(Nc2nccc(C(F)(F)F)n2)cc(-c2cnn3ccccc23)c1` [Example 1.1, N-(3-methyl-5-(pyrazolo[1,5-a]pyridin-3-yl)phenyl)-4-(trifluoromethyl)pyrimidin-2-amine]: the IC50 worked out at 65.8 nM.

Staying with this experiment, now noted: IC50 class; 10-dose titration, 25 μM ATP; read-out: rhSYK Activity.
Regarding `Cc1cc(Nc2nccc(C(F)F)n2)cc(-c2cnn(C(C[C@H](C)O)[C@H](C)O)c2)c1` (stereo in doubt) [Example 2.51, 3-[4-(3-{[4-(difluoromethyl)pyrimidin-2-yl]amino}-5-methylphenyl)-1H-pyrazol-1-yl]hexane-2,5-diol], the IC50 was at most 100 nM. For `Cc1cc(Nc2nccc(C(F)F)n2)cc(-c2cnn(C(C[C@@H](C)O)[C@@H](C)O)c2)c1` (stereo in doubt) [Example 2.52, 3-[4-(3-{[4-(difluoromethyl)pyrimidin-2-yl]amino}-5-methylphenyl)-1H-pyrazol-1-yl]hexane-2,5-diol], the IC50 is at most 100 nM. Take `Cc1cc(Nc2nccc(C(F)F)n2)cc(-c2cnn(C(C[C@H](C)O)[C@@H](C)O)c2)c1` (stereo in doubt) [Example 2.53, 3-[4-(3-{[4-(difluoromethyl)pyrimidin-2-yl]amino}-5-methylphenyl)-1H-pyrazol-1-yl]hexane-2,5-diol]: the IC50 was at most 100 nM. On to `Cc1cc(Nc2nccc(C(F)F)n2)cc(-c2cnn(C(C[C@@H](C)O)[C@H](C)O)c2)c1` (stereo in doubt) [Example 2.54, 3-[4-(3-{[4-(difluoromethyl)pyrimidin-2-yl]amino}-5-methylphenyl)-1H-pyrazol-1-yl]hexane-2,5-diol], for which the IC50 is at most 100 nM.

Turning to `Cc1cc(Nc2nccc(C(F)F)n2)cc(-c2cnn(C(C[C@H](C)O)[C@H](C)O)c2)c1` (stereo in doubt) [Example 2.55, 3-[4-(3-{[4-(difluoromethyl)pyrimidin-2-yl]amino}-5-methylphenyl)-1H-pyrazol-1-yl]hexane-2,5-diol], the IC50 is at most 100 nM. On the same count and under the same terms, the figure for `Cc1cc(Nc2nccc(C(F)F)n2)cc(-c2cnn(C(C[C@@H](C)O)[C@@H](C)O)c2)c1` (stereo in doubt) [Example 2.56, 3-[4-(3-{[4-(difluoromethyl)pyrimidin-2-yl]amino}-5-methylphenyl)-1H-pyrazol-1-yl]hexane-2,5-diol] is at most 100 nM. Regarding `Cc1cc(Nc2nccc(C(F)(F)F)n2)cc(-c2cnn(CCS(N)(=O)=O)c2)c1` [9.2], the IC50 is at most 100 nM. With `Cc1cc(Nc2nccc(C(F)(F)F)n2)cc(-n2ccc(Cl)n2)c1` [19.9], the IC50 was in the range of 100 to 1000 nM. On the same count and under the same terms, the figure for `Cc1cc(Nc2nccc(C(F)(F)F)n2)cc(-c2cnn3ccccc23)c1` [Example 1.1, N-(3-methyl-5-(pyrazolo[1,5-a]pyridin-3-yl)phenyl)-4-(trifluoromethyl)pyrimidin-2-amine] is at most 100 nM. Take `Cc1cc(Nc2nccc(C(F)(F)F)n2)cc(-c2cnn(CCC(=O)O)c2)c1` [Example 1.2, 3-[4-(3-methyl-5-{[4-(trifluoromethyl)-pyrirnidin-2-yl]amino}-phenyl)-1H-pyrazol-1-yl]-propanoic acid]: the IC50 was at most 100 nM. `Cc1cc(Nc2nccc(C(F)(F)F)n2)cc(-c2cnn(C)c2)c1` [Example 1.3, N-[3-methyl-5-(1-methyl-1H-pyrazol-4-yl)phenyl]-4-(trifluoromethyl)-pyrimidin-2-amine]: the IC50 was at most 100 nM. The same measure, in the same setting: for `Cc1cc(Nc2nccc(C(F)(F)F)n2)cc(-c2cnn(C3CCC(C(=O)OC(C)(C)C)CC3)c2)c1` (stereo not drawn) [Example 1.4, tert-butyl 4-[4-(3-methyl-5-{[4-(trifluoromethyl)-pyrimidin-2-yl]amino}-phenyl)-1H-pyrazol-1-yl]-cyclohexanecarboxylate] the value was 1000 to 10000 nM; for `Cc1cc(Nc2nccc(C(F)(F)F)n2)cc(-c2cnn(C3C=CCCC3)c2)c1` (stereo not drawn) [Example 1.5, N-[3-(1-cyclohex-2-en-1-yl-1H-pyrazol-4-yl)-5-methylphenyl]-4-(trifluoromethyl)-pyrimidin-2-amine], at most 100 nM. On the same count and under the same terms, for `Cc1cc(Nc2nccc(C(F)(F)F)n2)cc(-c2cn[nH]c2)c1` [Example 1.6, N-[3-methyl-5-(1H-pyrazol-4-yl)phenyl]-4-(trifluoromethyl)-pyrimidin-2-amine] the value was at most 100 nM.
